According to article PMC12057046, “Elucidation of short linear motif-based interactions of the MIT and rhodanese domains of the ubiquitin-specific protease 8” (Biology Direct, 2025):

Target: T1, USP8 Rhod domain (Homo sapiens, UniProt P40818)
T1 construct: USP8 Rhod (174–317) (UniProt: P40818); GST (cleaved yes); made in house; host or cells: Escherichia coli BL21-Gold (DE3)
T1 sequence (P40818 174-317): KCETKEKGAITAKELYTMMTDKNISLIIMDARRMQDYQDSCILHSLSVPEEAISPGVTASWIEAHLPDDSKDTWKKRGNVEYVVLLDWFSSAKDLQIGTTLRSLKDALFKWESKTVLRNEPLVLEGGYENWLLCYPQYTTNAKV
Experiment: Peptide-phage display-based deep mutational scanning (DMS), USP8 Rhod domain
Type: binding
Conditions: bait USP8_Rhodanese__P40818_174_317
Description: Four rounds of phage selections were carried out using the second generation human disorderome library or the constructed deep mutational scanning library. At least three individual replicates were used for each bait protein. 10 µg of GST-tagged proteins or GST control (diluted in PBS from the stock of proteins kept in the purification elution buffer) were immobilized in 100 µL PBS on a 96-well MaxiSorp (Nunc) plate overnight at 4 °C. The plates were incubated with blocking buffer (with 0.5% BSA in PBS) for 1 h at 4 °C followed by washing with 0.05% Tween 20 in PBS four times. The naïve phage library (10^11 CFU) was diluted in 1/5th volume PEG/NaCl (20% PEG-8000, 0.4 M NaCl) and 1X PBS, incubated on ice for 10 min and centrifuged at 10,000 [drawing 3] g for 10 min. The pellet was resuspended in the volume of PBS (100 µL/ well). The GST-coated control plate was incubated with 100 µL library per well in PBS for 1 h at 4 °C to remove non-specific binders. The supernatant was transferred to the target wells and incubated for 2 h at 4 °C. The wells were washed five times with 0.05% Tween 20 in PBS and the bound phages were eluted with 100 µL per well log-phase E. coli OmniMAX by incubating at 37° C while shaking. After 30 min, M13KO7 helper phages were added and incubated for an additional 45 min. The bacterial cultures were transferred to 1 mL 2YT supplemented with 100 µg/mL carbenicillin, 30 µg/mL kanamycin and 0.3 mM IPTG and grew overnight at 37 °C while shaking. The following day the cultures were centrifuged for 10 min at 2,000 [drawing 4] g, 4 °C. 1/10th volume of 10 [drawing 5] PBS was added to adjust the pH and heated at 65 °C for 10 min. The phage pools from each round were used as in-phages for the next round of selections.
The samples were prepared for NGS as previously described. […] The PCR products were normalized with 25 µL Mag-bind Total Pure NGS beads (Omega Biotek) and 10 µL of each eluted sample (Qiagen Elution Buffer) was pooled and cleaned-up with a PCR purification kit (Qiagen). The PCR product was confirmed by 2% agarose electrophoresis and the band was extracted with QIAquick Gel extraction Kit (Qiagen) and eluted with 30 µL TE buffer. The dsDNA was quantified using QuantiT PicoGreen dsDNA Assay Kit (Thermo Fisher) and sent for NGS (Illumina MiSeq v3, 1 × 150 bp read setup, 20% PhiX, NGI SciLifeLab facility, Sweden). The NGS data were demultiplexed, adapter regions were trimmed and sequences with an average quality of at least 20 were translated to peptide sequences. The NGS data were analysed using custom Python scripts. The total read NGS counts for each selection experiment of each peptide sequence were compiled and annotated in PepTools (https://slim.icr.ac.uk/tools/peptools/). Since ProP-PD is in essence a competition assay, the possibility of the input phage library influencing the selection outcome was explored. […] Pearson correlation coefficient and p-value were calculated using Python’s SciPy library.

[1] = wild-type/mutant pair ratio of averaged fractions, negative values where mutant fraction is higher
[2] = ProP-PD pairs, wild-type/mutant pair, wild type KIAA1614 569-584 GMERVLGGLSSPLRLL (wt_00013)
[3] = wild type/mutant pair, vs hit_library_peptide_wt GLALWEAKMKQLAERA, negative where mutant fraction exceeds wild type, ProP-PD pairs (sheet S7.B)

hit_pair_ratio [1]	Sequence	further results
-9.71	AMERVLGGLSSPLRLL	–
–	DMERVLGGLSSPLRLL	hit_pair_ratio [2]: 1.56
–	ELALWEAKMKQLAERA	hit_pair_ratio [3]: 75.56
–	EMERVLGGLSSPLRLL	hit_pair_ratio [2]: 2.87
–	FMERVLGGLSSPLRLL	hit_pair_ratio [2]: 321.97
–	GAALWEAKMKQLAERA	hit_pair_ratio [3]: 1107.01
–	GAERVLGGLSSPLRLL	hit_pair_ratio [2]: -2.65
–	GDERVLGGLSSPLRLL	hit_pair_ratio [2]: -4.95
–	GEERVLGGLSSPLRLL	hit_pair_ratio [2]: -32.83
–	GFALWEAKMKQLAERA	hit_pair_ratio [3]: 114.71
–	GFERVLGGLSSPLRLL	hit_pair_ratio [2]: 1.56
–	GGERVLGGLSSPLRLL	hit_pair_ratio [2]: -22.40
–	GHALWEAKMKQLAERA	hit_pair_ratio [3]: 175.67
–	GHERVLGGLSSPLRLL	hit_pair_ratio [2]: -7.73
–	GIALWEAKMKQLAERA	hit_pair_ratio [3]: 1.27
–	GIERVLGGLSSPLRLL	hit_pair_ratio [2]: -4.51
–	GKALWEAKMKQLAERA	hit_pair_ratio [3]: 369.00
–	GKERVLGGLSSPLRLL	hit_pair_ratio [2]: -1.45
–	GLAAWEAKMKQLAERA	hit_pair_ratio [3]: 52.20
–	GLADWEAKMKQLAERA	hit_pair_ratio [3]: 1107.01
–	GLAEWEAKMKQLAERA	hit_pair_ratio [3]: 52.71
–	GLAFWEAKMKQLAERA	hit_pair_ratio [3]: 21.29

hit_pair_ratio [1]	Sequence	further results
–	GLAGWEAKMKQLAERA	hit_pair_ratio [3]: 208.81
–	GLAHWEAKMKQLAERA	hit_pair_ratio [3]: 369.00
–	GLAIWEAKMKQLAERA	hit_pair_ratio [3]: -44.11
–	GLAKWEAKMKQLAERA	hit_pair_ratio [3]: 1107.01
–	GLALFEAKMKQLAERA	hit_pair_ratio [3]: 1107.01
–	GLALGEAKMKQLAERA	hit_pair_ratio [3]: 65.12
–	GLALHEAKMKQLAERA	hit_pair_ratio [3]: 1107.01
–	GLALKEAKMKQLAERA	hit_pair_ratio [3]: 553.50
–	GLALLEAKMKQLAERA	hit_pair_ratio [3]: 417.62
–	GLALMEAKMKQLAERA	hit_pair_ratio [3]: 16.52
–	GLALPEAKMKQLAERA	hit_pair_ratio [3]: 110.70
–	GLALREAKMKQLAERA	hit_pair_ratio [3]: 303.23
–	GLALSEAKMKQLAERA	hit_pair_ratio [3]: 61.66
–	GLALTEAKMKQLAERA	hit_pair_ratio [3]: 1107.01
–	GLALVEAKMKQLAERA	hit_pair_ratio [3]: 1107.01
–	GLALWAAKMKQLAERA	hit_pair_ratio [3]: 553.50
–	GLALWDAKMKQLAERA	hit_pair_ratio [3]: 51.13
–	GLALWEAEMKQLAERA	hit_pair_ratio [3]: 1107.01
–	GLALWEAKAKQLAERA	hit_pair_ratio [3]: 7.49
–	GLALWEAKFKQLAERA	hit_pair_ratio [3]: 369.00
–	GLALWEAKHKQLAERA	hit_pair_ratio [3]: 127.97
–	GLALWEAKIKQLAERA	hit_pair_ratio [3]: 101.08

hit_pair_ratio [1]	Sequence	further results
–	GLALWEAKLKQLAERA	hit_pair_ratio [3]: 1107.01
-3.11	GLALWEAKMAQLAERA	–
25.01	GLALWEAKMDQLAERA	–
-4.35	GLALWEAKMEQLAERA	–
59.51	GLALWEAKMFQLAERA	–
-1.24	GLALWEAKMGQLAERA	–
-2.45	GLALWEAKMHQLAERA	–
19.96	GLALWEAKMIQLAERA	–
133.35	GLALWEAKMKALAERA	–
-1.51	GLALWEAKMKDLAERA	–
1107.01	GLALWEAKMKFLAERA	–
5.73	GLALWEAKMKGLAERA	–
17.96	GLALWEAKMKHLAERA	–
553.50	GLALWEAKMKILAERA	–
417.62	GLALWEAKMKKLAERA	–
-2.26	GLALWEAKMKLLAERA	–
23.91	GLALWEAKMKMLAERA	–
1.69	GLALWEAKMKNLAERA	–
417.62	GLALWEAKMKQAAERA	–
553.50	GLALWEAKMKQFAERA	–
1107.01	GLALWEAKMKQIAERA	–
1107.01	GLALWEAKMKQKAERA	–

hit_pair_ratio [1]	Sequence	further results
114.71	GLALWEAKMKQLAARA	–
175.67	GLALWEAKMKQLADRA	–
1107.01	GLALWEAKMKQLAEAA	–
66.48	GLALWEAKMKQLAEDA	–
15.47	GLALWEAKMKQLAEEA	–
208.81	GLALWEAKMKQLAEFA	–
5.87	GLALWEAKMKQLAEGA	–
25.68	GLALWEAKMKQLAEHA	–
12.41	GLALWEAKMKQLAEKA	–
11.23	GLALWEAKMKQLAELA	–
12.23	GLALWEAKMKQLAEMA	–
55.62	GLALWEAKMKQLAENA	–
-18.07	GLALWEAKMKQLAEPA	–
-4.51	GLALWEAKMKQLAEQA	–
-5.62	GLALWEAKMKQLAERD	–
4.16	GLALWEAKMKQLAERE	–
1107.01	GLALWEAKMKQLAERF	–
73.80	GLALWEAKMKQLAERG	–
208.81	GLALWEAKMKQLAERH	–
-1.09	GLALWEAKMKQLAERI	–
72.57	GLALWEAKMKQLAERL	–
33.55	GLALWEAKMKQLAERM	–

hit_pair_ratio [1]	Sequence	further results
-1.05	GLALWEAKMKQLAERN	–
-3.73	GLALWEAKMKQLAERP	–
3.47	GLALWEAKMKQLAERQ	–
553.50	GLALWEAKMKQLAERR	–
1.62	GLALWEAKMKQLAERS	–
1.21	GLALWEAKMKQLAERT	–
-1.88	GLALWEAKMKQLAERV	–
303.23	GLALWEAKMKQLAERY	–
-3.11	GLALWEAKMKQLAESA	–
-1.95	GLALWEAKMKQLAETA	–
195.90	GLALWEAKMKQLAEVA	–
38.36	GLALWEAKMKQLAEWA	–
-10.12	GLALWEAKMKQLAEYA	–
24.07	GLALWEAKMKQLAFRA	–
14.06	GLALWEAKMKQLAGRA	–
1107.01	GLALWEAKMKQLAIRA	–
13.05	GLALWEAKMKQLALRA	–
7.80	GLALWEAKMKQLAMRA	–
73.80	GLALWEAKMKQLANRA	–
119.01	GLALWEAKMKQLAQRA	–
65.49	GLALWEAKMKQLASRA	–
553.50	GLALWEAKMKQLATRA	–

hit_pair_ratio [1]	Sequence	further results
20.13	GLALWEAKMKQLAVRA	–
1107.01	GLALWEAKMKQLAWRA	–
208.81	GLALWEAKMKQLAYRA	–
184.50	GLALWEAKMKQLDERA	–
-19.29	GLALWEAKMKQLEERA	–
-3.00	GLALWEAKMKQLGERA	–
1.77	GLALWEAKMKQLHERA	–
369.00	GLALWEAKMKQLIERA	–
184.50	GLALWEAKMKQLKERA	–
31.22	GLALWEAKMKQLLERA	–
81.38	GLALWEAKMKQLMERA	–
17.57	GLALWEAKMKQLNERA	–
87.51	GLALWEAKMKQLPERA	–
2.19	GLALWEAKMKQLQERA	–
133.35	GLALWEAKMKQLTERA	–
-3.40	GLALWEAKMKQLVERA	–
195.90	GLALWEAKMKQLYERA	–
1107.01	GLALWEAKMKQMAERA	–
417.62	GLALWEAKMKQRAERA	–
1107.01	GLALWEAKMKQSAERA	–
29.55	GLALWEAKMKRLAERA	–
